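A five-concentration, 48-hour dose response in 96-well plates underlies each endpoint, interpolated linearly between surrounding concentrations. At the GI50, growth is halved.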 Activity calls are given as the source filed them. Cut-off read from the data, not from the text of the source: active = GI50 up to about 1.1 µM and inactive = higher.
Key:
Assay in all cases: NCI tumour cell line growth inhibition, 48 h
786-0 = tested on: 786-0
A549 = tested on: A549
ACHN = tested on: ACHN
BT-549 = tested on: BT-549
IGROV-1 = tested on: IGROV-1
K562 = tested on: K562
KM12 = tested on: KM12
NCI-H226 = tested on: NCI-H226
NCI-H460 = tested on: NCI-H460
OVCAR-5 = tested on: OVCAR-5
SF-268 = tested on: SF-268
SF-295 = tested on: SF-295
SK-MEL-5 = tested on: SK-MEL-5
SK-OV-3 = tested on: SK-OV-3
SR = tested on: SR
T47D = tested on: T47D
U-251 = tested on: U-251
UO-31 = tested on: UO-31
CCRF-CEM = tested on: CCRF-CEM
Hs-578T = tested on: Hs-578T

SMILES	GI50 (786-0)	GI50 (A549)	GI50 (ACHN)	GI50 (BT-549)	GI50 (IGROV-1)	GI50 (K562)	GI50 (KM12)	GI50 (NCI-H226)	GI50 (NCI-H460)	GI50 (OVCAR-5)	GI50 (SF-268)	GI50 (SF-295)	GI50 (SK-MEL-5)	GI50 (SK-OV-3)	GI50 (SR)	GI50 (T47D)	GI50 (U-251)	GI50 (UO-31)	GI50 (CCRF-CEM)	GI50 (Hs-578T)
CC1=CSC(O)(c2ccc(Cl)cc2)c2noc(=O)n21 (configuration not stated)	> 100 µM (inactive)	> 100 µM (inactive)	> 100 µM (inactive)	> 100 µM (inactive)	> 100 µM (inactive)	61.1 µM (inactive)	> 100 µM (inactive)	> 100 µM (inactive)	51.2 µM (inactive)	> 100 µM (inactive)	> 100 µM (inactive)	> 100 µM (inactive)	59.6 µM (inactive)	> 100 µM (inactive)	50.7 µM (inactive)	54.8 µM (inactive)	> 10 µM (inactive)	58.1 µM (inactive)		
O=C1Nc2ccc(Br)cc2C1=Nc1cccnc1	20.5 µM (inactive)	48.4 µM (inactive)	18.3 µM (inactive)	17.1 µM (inactive)	19 µM (inactive)	20.1 µM (inactive)	27.4 µM (inactive)	31.4 µM (inactive)	> 100 µM (inactive)	29.3 µM (inactive)	27.7 µM (inactive)	50.4 µM (inactive)	17.8 µM (inactive)	47.5 µM (inactive)		20.6 µM (inactive)	12.4 µM (inactive)	11.1 µM (inactive)	16.2 µM (inactive)	19.9 µM (inactive)
CCc1ncc(CO)n1Cc1cccc2ccccc12	> 100 µM (inactive)	> 100 µM (inactive)	> 100 µM (inactive)	> 100 µM (inactive)	> 100 µM (inactive)	> 100 µM (inactive)	98.2 µM (inactive)	> 100 µM (inactive)	> 100 µM (inactive)	> 100 µM (inactive)	> 100 µM (inactive)	53.1 µM (inactive)	> 100 µM (inactive)	> 100 µM (inactive)		77.3 µM (inactive)	> 100 µM (inactive)	> 100 µM (inactive)		> 100 µM (inactive)
O=C(O)/C(O)=C\C(=O)c1ccc(Br)cc1	> 100 µM (inactive)	> 100 µM (inactive)	> 100 µM (inactive)	> 100 µM (inactive)	> 100 µM (inactive)	> 100 µM (inactive)	> 100 µM (inactive)	> 100 µM (inactive)	> 100 µM (inactive)	> 100 µM (inactive)	> 100 µM (inactive)	> 100 µM (inactive)	> 100 µM (inactive)	> 100 µM (inactive)		> 100 µM (inactive)	> 100 µM (inactive)	> 100 µM (inactive)	68.7 µM (inactive)	> 100 µM (inactive)
CCCCC(O)(c1ccccc1)C(O)(c1ccccc1)c1c(F)c(F)c(F)c(F)c1F (configuration not stated)	20.1 µM (inactive)	28.4 µM (inactive)	19.6 µM (inactive)	33.3 µM (inactive)	33.3 µM (inactive)	27.4 µM (inactive)		26 µM (inactive)	23.7 µM (inactive)	18.3 µM (inactive)	20 µM (inactive)	> 10 µM (inactive)	18.4 µM (inactive)	21.5 µM (inactive)	25.3 µM (inactive)	35.4 µM (inactive)	17.3 µM (inactive)	30.3 µM (inactive)	25.4 µM (inactive)	
CCOC(=O)C1=C(C)NC(C)=C(C(=O)OCC)C1c1ccc(C)cc1	20 µM (inactive)	47.2 µM (inactive)	43 µM (inactive)	52.8 µM (inactive)	27 µM (inactive)	31 µM (inactive)	46.7 µM (inactive)	35 µM (inactive)	22.9 µM (inactive)	41.6 µM (inactive)	51.1 µM (inactive)	27.4 µM (inactive)	18.8 µM (inactive)	57 µM (inactive)		39.9 µM (inactive)	46.9 µM (inactive)	51.1 µM (inactive)	0.0193 µM (active)	39.2 µM (inactive)
N#Cc1nnn(-c2ccccc2)c1O	> 100 µM (inactive)	> 100 µM (inactive)	> 100 µM (inactive)	> 100 µM (inactive)	> 100 µM (inactive)	> 100 µM (inactive)	> 100 µM (inactive)	> 100 µM (inactive)		> 100 µM (inactive)	> 100 µM (inactive)	> 100 µM (inactive)	> 100 µM (inactive)	> 100 µM (inactive)		> 100 µM (inactive)	> 100 µM (inactive)	> 100 µM (inactive)		> 100 µM (inactive)
Nc1nc(Cl)cc(NCC2(CO)CCC(CCc3ccccc3)C2)n1 (configuration not stated)	15.7 µM (inactive)	12.6 µM (inactive)	13.8 µM (inactive)	14 µM (inactive)	17.5 µM (inactive)	0.962 µM (active)	13.9 µM (inactive)	16.5 µM (inactive)	12 µM (inactive)	14.5 µM (inactive)	16.6 µM (inactive)	0.687 µM (active)	0.0665 µM (active)	17.5 µM (inactive)		0.877 µM (active)	15 µM (inactive)	18 µM (inactive)		21.3 µM (inactive)
O=C(/C=C\Nc1ccccc1O)C(Cl)(Cl)Cl	22.8 µM (inactive)	48.2 µM (inactive)	26.9 µM (inactive)	52.2 µM (inactive)	43.4 µM (inactive)	36.7 µM (inactive)	33.7 µM (inactive)	> 100 µM (inactive)	53.7 µM (inactive)	77.4 µM (inactive)	> 100 µM (inactive)	3.87 µM (inactive)	> 100 µM (inactive)	53.2 µM (inactive)		28 µM (inactive)	26.9 µM (inactive)	25.1 µM (inactive)	28.1 µM (inactive)	69 µM (inactive)
Cc1cc2nc(N3C(=O)/C(=C/c4ccc(Oc5ccccc5)cc4)N=C3c3ccccc3)sc2cc1C	50.8 µM (inactive)	48.2 µM (inactive)	> 100 µM (inactive)	43 µM (inactive)	37.4 µM (inactive)	24.5 µM (inactive)	26.1 µM (inactive)		32.1 µM (inactive)	58.1 µM (inactive)	63.8 µM (inactive)	33 µM (inactive)	30.8 µM (inactive)	> 100 µM (inactive)		42.3 µM (inactive)	64.6 µM (inactive)	50.7 µM (inactive)	26.7 µM (inactive)	52.2 µM (inactive)
COC(=O)c1cc(C)ccc1C1CN=NC12Cc1ccc(C)cc1C2=O (configuration not stated)	> 100 µM (inactive)	29.8 µM (inactive)	38.6 µM (inactive)	30.1 µM (inactive)	63.4 µM (inactive)	19.4 µM (inactive)	29 µM (inactive)	24.8 µM (inactive)	34.1 µM (inactive)	> 100 µM (inactive)	32.7 µM (inactive)	38 µM (inactive)	15.5 µM (inactive)	38.1 µM (inactive)		31.8 µM (inactive)	44.7 µM (inactive)	27.7 µM (inactive)	32.7 µM (inactive)	45.6 µM (inactive)

— ChEMBL document CHEMBL1201862, “PubChem BioAssay data set” (2004)
